{"source": "patent US20070086953A1", "about": "“Medicinal Aerosol Formulation Products With Improved Chemical Stability” (priority 2004, published 2007)", "key": {"[1]": {"conditions": "4 μg/63 μl, stored upright at 5° C., teflon-coated aluminium canisters, EPDM gaskets, after nine months; cited from earlier work"}, "[2]": {"test": "Stability study of TA 2005 HFA solution formulation in MDI cans, 40° C. and 75% relative humidity", "format": "physicochemical", "conditions": "three months, mean of two cans", "procedure": "A formulation for delivering a nominal dose of 1 μg per actuation of TA 2005 was prepared with the composition as follows:\nThe formulation (120 actuations/canister, overage of 30 actuations) was filled in aluminium canisters having the internal surface coated with Teflon (two stage pressure filling) and fitted with a metering valve having a 63 μl metering chamber provided with a butyl rubber gasket as described in WO 03/078538 (Bespak) cited above. In particular, the gaskets were made of a bromobutyl rubber made of approximately 97% isobutylene and approximately 3% isoprene and having been polymerised by using an aluminium chloride catalyst and by treating the thus obtained isoprene-isobutylene rubber with bromine.\nThe same formulation was filled in the same kind of cans fitted with valves provided with EPDM rubber gaskets.\nA stability study was carried out storing the formulation in upright and inverted cans at 40° C. and 75% relative humidity.\nThe stability test in Examples 1 and 2 was carried out both in upright and inverted cans. In inverted position, the formulation is in direct contact with the valve materials for all the duration of the test in order to detect possible chemical interactions with the valve materials that may negatively affect the stability of the active ingredient in the formulation. In upright cans the interactions between the valve materials and the formulation are very limited and so also the possible negative effects on the stability of the active ingredient in the formulation may be unnoticed."}}, "data": [{"compound": "COc1ccc(C[C@@H](C)NC[C@H](O)c2ccc(O)c3[nH]c(=O)ccc23)cc1.Cl", "note": "[TA 2005, 8-hydroxy-5-[(1R)-1-hydroxy-2-[[(1R)-2-(4-methoxyphenyl)-1-methylethyl]amino]ethyl]-2(1H)-quinolinone hydrochloride]", "values": [{"measurement": "TA 2005 assay", "setting": "[1]", "result": "higher than 95%"}, {"measurement": "percent amount of TA 2005", "setting": "[2]; inverted cans, EPDM rubber gaskets", "result": 77, "unit": "%"}, {"measurement": "percent amount of TA 2005", "setting": "[2]; inverted cans, bromobutyl rubber gaskets", "result": 97, "unit": "%"}, {"measurement": "percent amount of TA 2005", "setting": "[2]; upright cans, EPDM rubber gaskets", "result": 98, "unit": "%"}, {"measurement": "percent amount of TA 2005", "setting": "[2]; upright cans, bromobutyl rubber gaskets", "result": 98, "unit": "%"}]}]}
